Experimental data published in patent US8440660B2 (Santen Pharmaceutical Co., Ltd., priority 2006, dated 2013).
Where a name gives a salt, the structure may show the parent alone.

The compounds below were run against T1, Glucocorticoid Receptor (GR) (Homo sapiens, UniProt P04150) (assay: GR receptor competitor assay by fluorescence polarization (Invitrogen GR competitor assay kit, cat No. P2816)). Conditions: 20 μM test compound solution, 10 μL per well plus 5 μL 4×GS1 and 5 μL 4×GR solution; recombinant human GR; 2 to 4 hours at room temperature; a ratio of 100% or more is indicated by 100%; read-out: GR Binding ratio (%).
T1 construct: purchased Invitrogen P2816
T1 sequence (P04150 1-777): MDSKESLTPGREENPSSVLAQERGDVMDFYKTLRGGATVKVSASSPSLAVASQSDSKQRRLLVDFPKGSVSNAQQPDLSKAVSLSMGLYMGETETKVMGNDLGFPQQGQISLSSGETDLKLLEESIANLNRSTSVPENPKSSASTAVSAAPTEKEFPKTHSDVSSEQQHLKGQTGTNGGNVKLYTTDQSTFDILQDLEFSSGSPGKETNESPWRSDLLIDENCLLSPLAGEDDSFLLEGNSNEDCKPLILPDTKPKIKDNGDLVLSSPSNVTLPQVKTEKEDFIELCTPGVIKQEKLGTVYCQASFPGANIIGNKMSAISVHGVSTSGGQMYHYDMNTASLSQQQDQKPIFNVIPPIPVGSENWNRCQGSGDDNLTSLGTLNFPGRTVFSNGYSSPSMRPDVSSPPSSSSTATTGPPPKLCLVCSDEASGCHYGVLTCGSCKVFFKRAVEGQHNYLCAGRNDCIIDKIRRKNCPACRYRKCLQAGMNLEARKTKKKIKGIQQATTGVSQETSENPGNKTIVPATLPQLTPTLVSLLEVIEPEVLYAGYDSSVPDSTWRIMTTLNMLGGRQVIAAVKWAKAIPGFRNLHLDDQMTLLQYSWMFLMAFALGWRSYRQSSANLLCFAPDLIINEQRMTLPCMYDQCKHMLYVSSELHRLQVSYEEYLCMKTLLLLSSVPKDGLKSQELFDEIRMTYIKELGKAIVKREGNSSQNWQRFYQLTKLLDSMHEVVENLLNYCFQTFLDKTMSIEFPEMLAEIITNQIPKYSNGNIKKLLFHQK
Description: A detailed explanation of this matter will be described in the section of “Pharmacological Test” in Examples described below. In order to find the usefulness of the present compound as a pharmaceutical, a glucocorticoid receptor competitor assay was carried out by a fluorescence polarization method by using a glucocorticoid receptor competitor assay kit (manufactured by Invitrogen, cat No P2816) to study the glucocorticoid receptor binding activity of the present compound.
1. Evaluation Test for Binding Activity to Glucocorticoid Receptor (Hereinafter Referred to as “GR”)
In order to evaluate a binding activity to GR, a receptor competitor assay was carried out by a fluorescence polarization method. In the assay, a GR competitor assay kit (manufactured by Invitrogen, cat No. P2816) was used, and a procedure was carried out according to the protocol attached to the kit. Hereinafter, the specific method will be described.
(Preparation of Reagents)
GR screening buffer: A buffer containing 10 mM potassium phosphate (pH 7.4), 20 mM sodium molybdate (Na2MoO4), 0.1 mM ethylene diamine tetraacetic acid (EDTA), 5 mM dithiothreitol (DTT), 0.1 mM stabilizing peptide and 2% dimethylsulfoxide was prepared.
4×GS1 solution: Fluormone™ GS1, which is a fluorescent glucocorticoid ligand, was diluted with GR screening buffer, whereby a 4 nM solution was prepared.
4×GR solution: Recombinant human GR was diluted with GR screening buffer, whereby a 16 nM solution was prepared.
(Preparation of Test Compound Solution)
After a test compound was dissolved in dimethylsulfoxide, the resulting solution was diluted with GR screening buffer, whereby a 20 μM test compound solution was prepared.
(Test Method and Measurement Method)
1) The test compound solution was added in an amount of 10 μL into each well of a 384-well plate, and then, 4×GS1 solution and 4×GR solution were added in an amount of 5 μL into each well, respectively.
2) The plate was incubated in a dark place at room temperature for 2 to 4 hours.
3) By using a multimode plate reader, Analyst™ HT (manufactured by LJL Biosystems), fluorescence polarization of each well was measured. As the blank, a well containing GR screening buffer in place of the test compound and 4×GS1 solution was used.
4) The same procedure as that in the above 1) to 3) was carried out except that GR screening buffer was used in place of the test compound solution, and the obtained result was taken as the negative control.
5) The same procedure as that in the above 1) to 3) was carried out except that 2 mM dexamethasone was used in place of the test compound solution, and the obtained result was taken as the positive control.
(Calculation Equation of GR Binding Ratio)
A GR binding ratio (%) was calculated from the following equation. GR binding ratio (%)=100×[1−(fluorescence polarization of test compound solution−fluorescence polarization of positive control solution)/(fluorescence polarization of negative control solution−fluorescence polarization of positive control solution)] (Test Results and Discussion)
With `COc1cc(OC(=O)c2cccnc2C)ccc1-c1ccc2c(c1COc1cc(F)ccc1C)C(C)=CC(C)(C)N2` [Compound 1-63, 5-(5-Fluoro-2-methylphenoxymethyl)-6-[2-methoxy-4-(2-methylpyridin-3-ylcarbonyloxy)phenyl]-2,2,4-trimethyl-1,2-dihydroquinoline] the inhibition at 10 µM was 100%.
In the case of `COc1cc(OC(=O)c2ccc(C(C)=O)cc2)ccc1-c1ccc2c(c1COc1cc(F)ccc1C)C(C)=CC(C)(C)N2` [Compound 1-67, 6-[4-(4-Acetylbenzoyloxy)-2-methoxyphenyl]-5-(5-fluoro-2-methylphenoxymethyl)-2,2,4-trimethyl-1,2-dihydroquinoline], the inhibition at 10 µM is reported as 100%.
`COc1cc(OC(=O)N2CCOCC2)ccc1-c1ccc2c(c1COc1cc([N+](=O)[O-])ccc1C)C(C)=CC(C)(C)N2` [Compound 6-30, 6-[2-Methoxy-4-(morpholin-4-ylcarbonyloxy)phenyl]-5-(2-methyl-5-nitrophenoxymethyl)-2,2,4-trimethyl-1,2-dihydroquinoline] was tested, and the inhibition at 10 µM was 100%.
`COc1cc(OS(=O)(=O)C2CCCC2)ccc1-c1ccc2c(c1COc1cc(F)ccc1C)C(C)=CC(C)(C)N2` [Compound 4-29, 6-(4-Cyclopentylsulfonyloxy-2-methoxyphenyl)-5-(5-fluoro-2-methylphenoxymethyl)-2,2,4-trimethyl-1,2-dihydroquinoline] gave an inhibition at 10 µM of 100%.
Work on `CCCS(=O)(=O)Oc1ccc(-c2ccc3c(c2COc2cc([N+](=O)[O-])ccc2C)C(C)=CC(C)(C)N3)c(OC)c1` [Compound 4-25, 6-(2-Methoxy-4-propylsulfonyloxyphenyl)-5-(2-methyl-5-nitrophenoxymethyl)-2,2,4-trimethyl-1,2-dihydroquinoline] yielded an inhibition at 10 µM of 100%.
`COc1cc(OC(=O)c2cccnc2)ccc1-c1ccc2c(c1COc1cc(F)ccc1C)C(C)=CC(C)(C)N2` [Compound 1-13, 5-(5-Fluoro-2-methylphenoxymethyl)-6-[2-methoxy-4-(pyridin-3-ylcarbonyloxy)phenyl]-2,2,4-trimethyl-1,2-dihydroquinoline] showed an inhibition at 10 µM of 100%.
In the case of `COc1ccc([N+](=O)[O-])cc1OCc1c(-c2ccc(OC(=O)N3CCOCC3)cc2OC)ccc2c1C(C)=CC(C)(C)N2` [Compound 6-28, 6-[2-Methoxy-4-(morpholin-4-ylcarbonyloxy)phenyl]-5-(2-methoxy-5-nitrophenoxymethyl)-2,2,4-trimethyl-1,2-dihydroquinoline], the inhibition at 10 µM is reported as 100%.
For `COc1cc(OC(=O)C2CCN(C(=O)OC(C)(C)C)CC2)ccc1-c1ccc2c(c1COc1cc(F)ccc1C)C(C)=CC(C)(C)N2` [Compound 1-51, 6-[4-(1-t-Butoxycarbonylpiperidin-4-ylcarbonyloxy)-2-methoxyphenyl]-5-(5-fluoro-2-methylphenoxymethyl)-2,2,4-trimethyl-1,2-dihydroquinoline], the inhibition at 10 µM was 91%.
For `COc1ccc([N+](=O)[O-])cc1OCc1c(-c2ccc(OS(=O)(=O)C3CC3)cc2OC)ccc2c1C(C)=CC(C)(C)N2` [Compound 4-19, 6-(4-Cyclopropylsulfonyloxy-2-methoxyphenyl)-5-(2-methoxy-5-nitrophenoxymethyl)-2,2,4-trimethyl-1,2-dihydroquinoline], the inhibition at 10 µM was 98%.
`COc1cccc(NC(=O)Oc2ccc(-c3ccc4c(c3COc3cc(F)ccc3C)C(C)=CC(C)(C)N4)c(OC)c2)c1` [Compound 6-12, 5-(5-Fluoro-2-methylphenoxymethyl)-6-[2-methoxy-4-(3-methoxyphenylaminocarbonyloxy)phenyl]-2,2,4-trimethyl-1,2-dihydroquinoline] was tested, and the inhibition at 10 µM was 98%.
`CCC(=O)Oc1ccc(OC)c(-c2ccc3c(c2COc2cc(F)ccc2C)C(C)=CC(C)(C)N3)c1` [Compound 1-27, 5-(5-Fluoro-2-methylphenoxylmethyl)-6-(2-methoxy-5-propionyloxyphenyl)-2,2,4-trimethyl-1,2-dihydroquinoline] showed an inhibition at 10 µM of 84%.
With `COc1cc(OC(=O)CN)ccc1-c1ccc2c(c1COc1cc(F)ccc1C)C(C)=CC(C)(C)N2` [Compound 3-1, 6-(4-Aminoacetoxy-2-methoxyphenyl)-5-(5-fluoro-2-methylphenoxymethyl)-2,2,4-trimethyl-1,2-dihydroquinoline monohydrochloride] the inhibition at 10 µM was 100%.
For `CCCS(=O)(=O)Oc1ccc(-c2ccc3c(c2COc2cc([N+](=O)[O-])ccc2OC)C(C)=CC(C)(C)N3)c(OC)c1` [Compound 4-18, 5-(2-Methoxy-5-nitrophenoxymethyl)-6-(2-methoxy-4-propylsulfonyloxyphenyl)-2,2,4-trimethyl-1,2-dihydroquinoline], the inhibition at 10 µM was 99%.
For `COc1ccc(OC(=O)c2ccccn2)cc1-c1ccc2c(c1COc1cc(F)ccc1C)C(C)=CC(C)(C)N2` [Compound 1-44, 5-(5-Fluoro-2-methylphenoxymethyl)-6-[2-methoxy-5-(pyridin-2-ylcarbonyloxy)phenyl]-2,2,4-trimethyl-1,2-dihydroquinoline], the inhibition at 10 µM was 100%.
For `COC(=O)c1ccc(NC(=O)Oc2ccc(-c3ccc4c(c3COc3cc(F)ccc3C)C(C)=CC(C)(C)N4)c(OC)c2)cc1` [Compound 6-14, 5-(5-Fluoro-2-methylphenoxymethyl)-6-[2-methoxy-4-(4-methoxycarbonylphenylaminocarbonyloxy)phenyl]-2,2,4-trimethyl-1,2-dihydroquinoline], the inhibition at 10 µM was 88%.
In the case of `COc1ccc(NC(=O)Oc2ccc(-c3ccc4c(c3COc3cc(F)ccc3C)C(C)=CC(C)(C)N4)c(OC)c2)cc1` [Compound 6-13, 5-(5-Fluoro-2-methylphenoxymethyl)-6-[2-methoxy-4-(4-methoxyphenylaminocarbonyloxy)phenyl]-2,2,4-trimethyl-1,2-dihydroquinoline], the inhibition at 10 µM is reported as 100%.
Work on `COc1cc(OC(=O)c2ccccn2)ccc1-c1ccc2c(c1COc1cc(F)ccc1C)C(C)=CC(C)(C)N2` [Compound 1-35, 5-(5-Fluoro-2-methylphenoxymethyl)-6-[2-methoxy-4-(pyridin-2-ylcarbonyloxy)phenyl]-2,2,4-trimethyl-1,2-dihydroquinoline] yielded an inhibition at 10 µM of 100%.
In the case of `COC(=O)c1cccc(C(=O)Oc2ccc(-c3ccc4c(c3COc3cc(F)ccc3C)C(C)=CC(C)(C)N4)c(OC)c2)c1` [Compound 1-68, 5-(5-Fluoro-2-methylphenoxymethyl)-6-[2-methoxy-4-(3-methoxycarbonylbenzoyloxy)phenyl]-2,2,4-trimethyl-1,2-dihydroquinoline], the inhibition at 10 µM is reported as 100%.
`CCCCS(=O)(=O)Oc1ccc(-c2ccc3c(c2COc2cc(F)ccc2C)C(C)=CC(C)(C)N3)c(OC)c1` [Compound 4-14, 6-(4-Butylsulfonyloxy-2-methoxyphenyl)-5-(5-fluoro-2-methylphenoxymethyl)-2,2,4-trimethyl-1,2-dihydroquinoline] gave an inhibition at 10 µM of 90%.
For `COc1cc(OC(=O)c2ccco2)ccc1-c1ccc2c(c1COc1cc([N+](=O)[O-])ccc1C)C(C)=CC(C)(C)N2` [Compound 1-95, 6-[4-(Furan-2-ylcarbonyloxy)-2-methoxyphenyl]-5-(2-methyl-5-nitrophenoxymethyl)-2,2,4-trimethyl-1,2-dihydroquinoline], the inhibition at 10 µM was 93%.
